Assay results published in article PMC9820444, “Design and Synthesis of Acridine-Triazole and Acridine-Thiadiazole Derivatives and Their Inhibitory Effect against Cancer Cells” (International Journal of Molecular Sciences, 2022).
Read-outs that look alike come from different tables or passages of the source. Marks after values point to notes of the source that are not given here.

Key:
[1] = tested on: human foreskin fibroblasts (HFF); assay: MTT antiproliferative assay, HFF; type: cell-based; details: read-out: Effect against cell viability (IC50), HFF
Procedure: (§1) All newly synthesized acridinyl derivatives (4–6) were screened for their anticancer activities in comparison to the reference compounds, 5-FU and cis-platinum. Compounds 4–6 were tested for their in vitro antitumor activities against HFF, MGC-803, BEL-7404, NCI-H460, and T24 tumor cell lines, and human normal liver cells (LO2), and the results are shown in Table 1. Most of the compounds had strong selective potency against MGC-803 and T24 cancer cells. […] In the T24 cell line assay, many compounds, especially the series of compound 4, had significant activity against T24. This implies that there is a significant increase in potency after the introduction of the aroyl thiourea group. […] To our delight, most 1,2,4-triazolethiones (5) and 1,2,4-thiadiazoles (6) have low toxicity to LO2 compared with the positive control.
(§2) Test samples, including compounds 4–6 and commercial classical anticancer drugs (5-FU and cis-platinum), were screened for their anti-cancer activity against HFF human foreskin fibroblast cells, MGC-803 human gastric cancer cells, BEL-7404 human hepatocellular carcinoma cells, NCI-H460 human large cell carcinoma cells, and T24 human bladder carcinoma cells using the 3-(4,5-dimethylthiazol-2-yl)-2,5-diphenyltetrazoliumbromide (MTT) assay method cited in the literature. The initial concentration of all the test samples was 100 μg/mL, which was serially diluted in complete medium with ten-fold dilutions to give six concentrations per compound. Their cytotoxicity was determined in 96-well flat bottomed microtiter plates. All the test samples were tested in triplicate. The results were expressed as the drug concentration that inhibited cell growth by 50% as compared to the controls (IC50). The IC50 values were calculated from regression lines obtained from the percent cell growth inhibition plotted as a function of the logarithm of the dose.

[2] = tested on: subintestinal veins (SIVs) in zebrafish embryos; assay: Zebrafish angiogenesis assay (subintestinal veins, NBT/BCIP staining); type: in vivo; details: 1 mg/mL; for area of blood vessels: additional blood vessels were formed on the blood vessel edge
Text: Currently, the zebrafish has emerged as a valuable model organism to substitute traditional models for studying angiogenesis inhibitors. The genes of zebrafish show 70–80% similarity to humans, and the vascular structure of zebrafish has high similarity to that of other vertebrates. Therefore, the subintestinal veins (SIVs) in the zebrafish embryos are used as evaluation indicators for anti-angiogenesis inhibitors. In this study, NBT/BCIP vascular staining was used to observe the angiogenesis effect of representative drugs (4h, 4f, 5d, 5h, 6g and 6h) in a zebrafish model. […] Compared with the blank control group, the area of the meshed pattern vessel and the number of vascular branches in the network decreased after the administration of compounds 4h, 5d, 5h and 6h.
The 24 hpf zebrafish embryos were dechorionated with a 1 gL^−1 pronase treatment and maintained in distilled water in 12-well cell culture plates (each well contained 20 embryos). A negative control group containing zebrafish embryos in distilled water and a vehicle treatment group that was treated with 2% dimethyl sulfoxide (DMSO) were prepared. The anti-angiogenic compounds were diluted to 1 mg/mL. After incubating at 28 °C for […], the embryos were immersed in 4% paraformaldehyde and dehydrated by gradient ethanol. Subsequently, the embryos were balanced in NTMT buffer (5 M NaCl + 1 M Tris [pH 9.0–9.5] + 1 M MgCl2+ 10% Tween), and nitrotetrazolium blue chloride (NBT) and p-toluidine salt (BCIP) staining were performed. To evaluate the effect of compounds on the angiogenesis of zebrafish embryos, the growth of embryonic sub-intestinal veins (SIVs) at 72 hpf was observed using an IX71 Olympus microscope (Hamburger, Germany). The length of the SIVs was calculated using the image J 1.8.0 software (Bethesda, MD, USA).

[3] = tested on: large cell lung cancer cells (NCI-H460); assay: MTT antiproliferative assay, NCI-H460; type: cell-based, human; details: read-out: Effect against cell viability (IC50), NCI-H460
Procedure: as §1, §2

[4] = tested on: hepatocellular carcinoma bel-7404 (BEL-7404); assay: MTT antiproliferative assay, BEL-7404; type: cell-based, human; details: read-out: Effect against cell viability (IC50), BEL-7404
Procedure: as §1, §2

[5] = tested on: human normal liver cells (LO2); assay: Cytotoxicity against normal liver cells LO2; type: cell-based; details: MTT, read-out: Effect against cell viability (IC50), LO2
Procedure: as §1, §2

[6] = tested on: bladder cancer cells (T24); assay: MTT antiproliferative assay, T24; type: cell-based, human; details: read-out: Effect against cell viability (IC50), T24
Procedure: as §1, §2

[7] = tested on: human gastric cancer cells-803 (MGC-803); assay: MTT antiproliferative assay, MGC-803; type: cell-based; details: read-out: Effect against cell viability (IC50), MGC-803
Procedure: as §1, §2

[8] = tested on: zebrafish embryos; parameters: mortality rate of zebrafish embryos: dose or concentration left out as unconfirmed; details: for MAR (malformation rate) / MOR (mortality rate): zebrafish embryos 72 hpf
Procedure: In this experiment, 2% DMSO was used to dissolve the target products, and the abnormal rate (MAR) and mortality rate (MOR) of zebrafish embryos (72 hpf) were used for statistics.
The zebrafish embryos were collected at 6 hpf and randomly divided into naive control (embryos maintained in distilled water), vehicle control (embryos treated with 2% DMSO), and drug groups. Stock solutions of all drugs were prepared in 2% DMSO as a solubilizing agent and diluted to three concentrations (0.5 mg/mL, 1 mg/mL, and 2 mg/mL). Each group had 20 embryos per test concentration. […] Each compound was evaluated in three independent biological experiments.

[9] = target: T1, DNA topoisomerase I (topo I) (Bos taurus, UniProt F1MN93); assay: Topo I inhibitory activity (pBR322); type: biochemical; details: at 100 µM
T1 construct: purchased Takara Bio Inc. (Shiga, Japan)
T1 sequence (F1MN93 1-767): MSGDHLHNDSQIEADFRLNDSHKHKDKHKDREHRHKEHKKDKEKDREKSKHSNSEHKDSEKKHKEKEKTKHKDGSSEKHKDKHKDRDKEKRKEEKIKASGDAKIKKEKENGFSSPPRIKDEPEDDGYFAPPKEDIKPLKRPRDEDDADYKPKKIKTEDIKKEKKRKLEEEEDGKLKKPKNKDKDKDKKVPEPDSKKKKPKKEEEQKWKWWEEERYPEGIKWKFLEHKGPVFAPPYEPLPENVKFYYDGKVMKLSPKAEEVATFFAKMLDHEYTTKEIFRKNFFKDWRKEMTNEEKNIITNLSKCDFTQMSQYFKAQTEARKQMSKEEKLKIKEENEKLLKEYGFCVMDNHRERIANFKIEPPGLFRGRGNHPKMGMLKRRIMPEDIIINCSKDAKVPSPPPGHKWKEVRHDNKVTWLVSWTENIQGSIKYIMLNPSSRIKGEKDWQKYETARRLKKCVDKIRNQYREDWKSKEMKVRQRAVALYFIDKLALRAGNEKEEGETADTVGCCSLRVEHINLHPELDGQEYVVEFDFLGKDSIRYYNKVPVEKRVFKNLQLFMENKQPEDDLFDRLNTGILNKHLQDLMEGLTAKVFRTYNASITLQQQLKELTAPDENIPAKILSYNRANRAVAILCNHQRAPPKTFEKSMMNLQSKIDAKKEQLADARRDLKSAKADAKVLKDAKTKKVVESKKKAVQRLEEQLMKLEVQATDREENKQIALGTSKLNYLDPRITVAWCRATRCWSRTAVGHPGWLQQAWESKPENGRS

Row | SMILES | IC50 [1] | IC50 [3] | IC50 [4] | IC50 [5] | IC50 [6] | IC50 ([7]; MTT) | melting point | IC50 ([1]; Homo sapiens, Fibroblast) | IC50 ([3]; Homo sapiens) | IC50 ([4]; Homo sapiens) | IC50 ([5]; Homo sapiens) | IC50 ([6]; Homo sapiens) | IC50 ([7]; Homo sapiens, MGC-803, MTT) | further results
1 | COc1ccc2[nH]c3ccccc3c(=NC(=S)NNC(=O)c3ccncc3)c2c1 [4a, 1-2′-methoxyl acridinyl-3-4′-pyridinamide thiourea] | 75.8 ± 3.52 µM | 36.4 ± 3.12 µM | 26.9 ± 2.58 µM | 22 ± 1.71 µM | > 100 µM | 10.9 ± 1.82 µM | – | – | – | – | – | – | – | area of blood vessels ([2]; zebrafish embryos): could reduce the area of blood vessels; MAR (malformation rate) ([8]; 1 mg/mL): 85% ^c; MOR (mortality rate) ([8]; 1 mg/mL): 15% ^c; MAR (malformation rate) ([8]; 1.5 mg/mL): 60% ^c; MOR (mortality rate) ([8]; 1.5 mg/mL): 40% ^c; MAR (malformation rate) ([8]; 2 mg/mL): 55% ^c; MOR (mortality rate) ([8]; 2 mg/mL): 45% ^c; total mortality and malformation rate ([8]; zebrafish embryos, 2.0 mg.L^−1): 100%
2 | COc1ccc2[nH]c3ccccc3c(=NC(=S)NNC(=O)c3ccc(Cl)cc3)c2c1 [4e] | 66.8 ± 4.52 µM | 73.2 ± 3.67 µM | 25.9 ± 2.17 µM | 10.2 ± 1.12 µM | 10.3 ± 1.07 µM | 25.6 ± 1.97 µM | – | – | – | – | – | – | – | topo I inhibitory activity [9]: potent
3 | COc1ccc(-c2n[nH]c(=S)n2-c2c3ccccc3nc3ccc(OC)cc23)cc1 [5c, 4-(2-methoxyacridin-9-yl)-5-(4-methoxyphenyl)-2,4-dihydro-3H-1,2,4-triazole-3-thione] | – | – | – | – | – | – | 262 to 267 °C | 75.5 ± 2.92 µM | 36.5 ± 3.92 µM | 28.7 ± 2.24 µM | > 100 µM | 29.3 ± 1.91 µM | 15.1 ± 0.98 µM | topo I inhibitory activity [9]: potent
4 | COc1ccc(-n2c(-c3c4ccccc4nc4ccc(C)cc34)n[nH]c2=S)cc1 [5h, 4-(4-methoxyphenyl)-4-(2-methylacridin-9-yl)-2,4-dihydro-3H-1,2,4-triazole-3-thione] | 68.1 ± 2.64 µM | 26.3 ± 2.51 µM | 40.3 ± 2.06 µM | 37.7 ± 2.47 µM | 11.2 ± 1.16 µM | 10.9 ± 0.97 µM | – | – | – | – | – | – | – | reduction in the vessel length (SIVs) compared to the mean vessel length for the controls ([2]; 72 hpf zebrafish embryos): ~50%; area of the meshed pattern vessel and number of vascular branches in the network ([2]; zebrafish embryos, compared with blank control group): decreased; mortality rate of zebrafish embryos [8]: ~0%; malformation rate of zebrafish embryos ([8]; 2.0 mg.L^−1): less than 15%; MAR (malformation rate) ([8]; 1 mg/mL): 5% ^a; MOR (mortality rate) ([8]; 1 mg/mL): 0%; MAR (malformation rate) ([8]; 1.5 mg/mL): 10% ^a; MOR (mortality rate) ([8]; 1.5 mg/mL): 0%; MAR (malformation rate) ([8]; 2 mg/mL): 15% ^a; MOR (mortality rate) ([8]; 2 mg/mL): 0%
5 | COC1=CC2C(=Nc3nnc(-c4ccc(OC)cc4)s3)c3ccccc3NC2C=C1 (stereo not shown) [6c, 7-methoxy-N-(5-(4-methoxyphenyl)-1,3,4-thiadiazol-2-yl)-10,10a-dihydroacridin-9(8aH)-imine] | – | – | – | – | – | – | 230 to 232 °C | 65.2 ± 3.92 µM | 30.2 ± 2.45 µM | 25.1 ± 2.15 µM | > 100 µM | 24.3 ± 2.34 µM | 12.1 ± 1.22 µM | –
6 | COC1=CC2C(=Nc3nnc(-c4ccc([N+](=O)[O-])cc4)s3)c3ccccc3NC2C=C1 (stereo not shown) [6d, 7-methoxy-N-(5-(4-nitrophenyl)-1,3,4-thiadiazol-2-yl)-10,10a-dihydroacridin-9(8aH)-imine] | – | – | – | – | – | – | 258 to 260 °C | > 100 µM | > 100 µM | > 100 µM | > 100 µM | > 100 µM | 26.7 ± 3.35 µM | –
7 | CC1=CC2C(=Nc3nnc(-c4ccncc4)s3)c3ccccc3NC2C=C1 (stereo not shown) [6f, 7-methyl-N-(5-(pyridin-4-yl)-1,3,4-thiadiazol-2-yl)-10,10a-dihydroacridin-9(8aH)-imine] | – | – | – | – | – | – | 276 to 278 °C | 45.4 ± 2.18 µM | 55.7 ± 3.28 µM | 40.3 ± 2.19 µM | 37.2 ± 2.12 µM | 13.9 ± 1.37 µM | 12.3 ± 1.96 µM | –
8 | CC1=CC2C(=Nc3nnc(-c4ccccc4)s3)c3ccccc3NC2C=C1 (stereo not shown) [6g, 7-methyl-N-(5-phenyl-1,3,4-thiadiazol-2-yl)-10,10a-dihydroacridin-9(8aH)-imine] | – | – | – | – | – | 9.95 ± 1.03 µM | 294 to 296 °C | 76.5 ± 2.79 µM | 25.9 ± 1.83 µM | 31.2 ± 3.27 µM | > 100 µM | 19.3 ± 1.05 µM | 9.01 ± 1.32 µM | area of blood vessels ([2]; zebrafish embryos): could reduce the area of blood vessels
9 | CC1=CC2C(=Nc3nnc(-c4ccc(Cl)cc4)s3)c3ccccc3NC2C=C1 (stereo not shown) [6j, 7-methyl-N-(5-(4-chlorophenyl)-1,3,4-thiadiazol-2-yl)-10,10a-dihydroacridin-9(8aH)-imine] | – | – | – | – | – | – | 258 to 260 °C | 56.2 ± 3.16 µM | 13.9 ± 1.83 µM | 48.5 ± 3.06 µM | 51.2 ± 3.09 µM | 15.5 ± 1.98 µM | 13 ± 1.89 µM | –
